# Experiments:
# Assay in all cases: Test E greenhouse herbicide test, pre- and postemergence
# Assay type in all cases: in vivo
# [1] = system: barnyardgrass (Echinochloa crus-galli)
# How it was run: (§1)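 Seeds were sown in silt loam and sprayed preemergence with compound in a non-phytotoxic solvent mix containing surfactant; for postemergence, plants at 2 to 18 cm (1- to 4-leaf stage) in peat-based potting medium were sprayed with the same formulation. After 14 to 21 d in a greenhouse, injury was rated visually against controls (0–100).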
# [2] = system: crabgrass, Brazilian (Brazilian crabgrass, Digitaria horizontalis)
# How it was run: as §1
# [3] = system: dayflower (Virginia (VA) dayflower, Commelina virginica)
# How it was run: as §1
# [4] = system: goosegrass (Eleusine indica); conditions: Preemergence
# How it was run: as §1
# [5] = system: johnsongrass (Sorghum halepense); conditions: Preemergence
# How it was run: as §1
# [6] = system: kochia (Kochia scoparia)
# How it was run: as §1
# [7] = system: nutsedge, yellow (yellow nutsedge, Cyperus esculentus); conditions: Preemergence
# How it was run: as §1
# [8] = system: pigweed, palmer (palmer pigweed, Amaranthus palmeri)
# How it was run: as §1
# [9] = system: surinam grass (Brachiaria decumbens); conditions: Preemergence
# How it was run: as §1
# [10] = system: waterhemp (common waterhemp, Amaranthus rudis)
# How it was run: as §1
# [11] = 62 g ai/ha, Postemergence, scale 0 to 100 (0 no effect, 100 complete control)
# [12] = 62 g ai/ha, Preemergence, scale 0 to 100 (0 no effect, 100 complete control)
# [13] = 125 g ai/ha, Postemergence, scale 0 to 100 (0 no effect, 100 complete control)
# [14] = 125 g ai/ha, Preemergence, scale 0 to 100 (0 no effect, 100 complete control)
# [15] = Postemergence, 16 g ai/ha, visual, scale 0 no effect to 100 complete control
# [16] = Postemergence, 31 g ai/ha, visual, scale 0 no effect to 100 complete control
# [17] = Preemergence, 16 g ai/ha, scale 0 to 100, 0 no effect, 100 complete control
# [18] = Preemergence, 31 g ai/ha, scale 0 to 100, 0 no effect, 100 complete control
# [19] = 62 g ai/ha, scale 0 to 100 (0 no effect, 100 complete control)
# [20] = 125 g ai/ha, scale 0 to 100 (0 no effect, 100 complete control)
# [21] = 16 g ai/ha, scale 0 to 100, 0 no effect, 100 complete control
# [22] = 31 g ai/ha, scale 0 to 100, 0 no effect, 100 complete control
smiles,measurement,setting,value
CCCC(=O)Oc1c(C)nn(C)c(=O)c1-c1c(C)sc2ccc(C)cc12 [Compound 105],"Plant response rating, Barnyardgrass",[1]; [11],30
same,"Plant response rating, Barnyardgrass",[1]; [12],20
same,"Plant response rating, Barnyardgrass",[1]; [13],30
same,"Plant response rating, Barnyardgrass",[1]; [14],35
same,"Plant response rating, Barnyardgrass",[1]; [15],15
same,"Plant response rating, Barnyardgrass",[1]; [16],20
same,"Plant response rating, Barnyardgrass",[1]; [17],20
same,"Plant response rating, Crabgrass, Brazil",[2]; [11],40
same,"Plant response rating, Crabgrass, Brazil",[2]; [12],35
same,"Plant response rating, Crabgrass, Brazil",[2]; [13],50
same,"Plant response rating, Crabgrass, Brazil",[2]; [14],75
same,"Plant response rating, Crabgrass, Brazil",[2]; [15],5
same,"Plant response rating, Crabgrass, Brazil",[2]; [16],20
same,"Plant response rating, Crabgrass, Brazil",[2]; [18],0
same,"Plant response rating, Dayflower, VA",[3]; [11],50
same,"Plant response rating, Dayflower, VA",[3]; [12],0
same,"Plant response rating, Dayflower, VA",[3]; [13],60
same,"Plant response rating, Dayflower, VA",[3]; [14],10
same,"Plant response rating, Dayflower, VA",[3]; [15],30
same,"Plant response rating, Dayflower, VA",[3]; [16],30
same,"Plant response rating, Dayflower, VA",[3]; [17],0
same,"Plant response rating, Dayflower, VA",[3]; [18],0
same,"Plant response rating, Goosegrass",[4]; [19],0
same,"Plant response rating, Goosegrass",[4]; [20],10
same,"Plant response rating, Goosegrass",[4]; [21],0
same,"Plant response rating, Goosegrass",[4]; [22],0
same,"Plant response rating, Johnsongrass",[5]; [19],20
same,"Plant response rating, Johnsongrass",[5]; [20],20
same,"Plant response rating, Johnsongrass",[5]; [21],0
same,"Plant response rating, Johnsongrass",[5]; [22],0
same,"Plant response rating, Kochia",[6]; [11],90
same,"Plant response rating, Kochia",[6]; [12],35
same,"Plant response rating, Kochia",[6]; [13],100
same,"Plant response rating, Kochia",[6]; [14],100
same,"Plant response rating, Kochia",[6]; [15],80
same,"Plant response rating, Kochia",[6]; [16],80
same,"Plant response rating, Kochia",[6]; [17],0
same,"Plant response rating, Kochia",[6]; [18],0
same,"Plant response rating, Nutsedge, Yellow",[7]; [19],10
same,"Plant response rating, Nutsedge, Yellow",[7]; [20],40
same,"Plant response rating, Nutsedge, Yellow",[7]; [21],0
same,"Plant response rating, Nutsedge, Yellow",[7]; [22],0
same,"Plant response rating, Pigweed, Palmer",[8]; [11],70
same,"Plant response rating, Pigweed, Palmer",[8]; [12],98
same,"Plant response rating, Pigweed, Palmer",[8]; [13],70
same,"Plant response rating, Pigweed, Palmer",[8]; [14],90
same,"Plant response rating, Pigweed, Palmer",[8]; [15],75
same,"Plant response rating, Pigweed, Palmer",[8]; [16],70
same,"Plant response rating, Pigweed, Palmer",[8]; [17],0
same,"Plant response rating, Pigweed, Palmer",[8]; [18],0
same,"Plant response rating, Surinam Grass",[9]; [19],10
same,"Plant response rating, Surinam Grass",[9]; [20],70
same,"Plant response rating, Surinam Grass",[9]; [21],0
same,"Plant response rating, Surinam Grass",[9]; [22],0
same,"Plant response rating, Waterhemp",[10]; [12],90
same,"Plant response rating, Waterhemp",[10]; [13],90
same,"Plant response rating, Waterhemp",[10]; [14],100
same,"Plant response rating, Waterhemp",[10]; [15],60
same,"Plant response rating, Waterhemp",[10]; [16],70
same,"Plant response rating, Waterhemp",[10]; [17],70
same,"Plant response rating, Waterhemp",[10]; [18],80

# — patent publication US10597388B2, “Pyridazinone herbicides” (FMC CORPORATION, priority 2014, dated 2020)
